According to paper PMC3433420 (PLoS ONE, 2012):
Residues, ends and D or L forms follow the SMILES beside them.

Key:
Experiment in all cases: In-house protein microarrays (with or without 5 mM DTT), protein named per line
Format in all cases: binding
SH2 and PTB domains [1] = target: T1, SH2 and PTB domains (Homo sapiens, UniProt P15498); conditions: protein VAV1, array fabrication # 39329
T1 construct: thioredoxin; made in house; host or cells: BL21(DE3)pLysS E. coli
In short: (§1)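 Recombinant domains (~40 µM) spotted in duplicate on aldehyde slides, quenched 1 h at room temperature in HEPES/KCl/Tween-20 buffer pH 7.8 with 5 mM DTT and 1% BSA, then probed with rhodamine-labeled peptide. Thioredoxin-subtracted mean fluorescence fitted for KD.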

SH2 and PTB domains [2] = target: T2, SH2 and PTB domains (Homo sapiens, UniProt Q63HR2); conditions: protein TENC1, array fabrication # 39329
T2 construct: thioredoxin; made in house; host or cells: BL21(DE3)pLysS E. coli
T2 sequence (Q63HR2 whole entry, the tested form may be a part): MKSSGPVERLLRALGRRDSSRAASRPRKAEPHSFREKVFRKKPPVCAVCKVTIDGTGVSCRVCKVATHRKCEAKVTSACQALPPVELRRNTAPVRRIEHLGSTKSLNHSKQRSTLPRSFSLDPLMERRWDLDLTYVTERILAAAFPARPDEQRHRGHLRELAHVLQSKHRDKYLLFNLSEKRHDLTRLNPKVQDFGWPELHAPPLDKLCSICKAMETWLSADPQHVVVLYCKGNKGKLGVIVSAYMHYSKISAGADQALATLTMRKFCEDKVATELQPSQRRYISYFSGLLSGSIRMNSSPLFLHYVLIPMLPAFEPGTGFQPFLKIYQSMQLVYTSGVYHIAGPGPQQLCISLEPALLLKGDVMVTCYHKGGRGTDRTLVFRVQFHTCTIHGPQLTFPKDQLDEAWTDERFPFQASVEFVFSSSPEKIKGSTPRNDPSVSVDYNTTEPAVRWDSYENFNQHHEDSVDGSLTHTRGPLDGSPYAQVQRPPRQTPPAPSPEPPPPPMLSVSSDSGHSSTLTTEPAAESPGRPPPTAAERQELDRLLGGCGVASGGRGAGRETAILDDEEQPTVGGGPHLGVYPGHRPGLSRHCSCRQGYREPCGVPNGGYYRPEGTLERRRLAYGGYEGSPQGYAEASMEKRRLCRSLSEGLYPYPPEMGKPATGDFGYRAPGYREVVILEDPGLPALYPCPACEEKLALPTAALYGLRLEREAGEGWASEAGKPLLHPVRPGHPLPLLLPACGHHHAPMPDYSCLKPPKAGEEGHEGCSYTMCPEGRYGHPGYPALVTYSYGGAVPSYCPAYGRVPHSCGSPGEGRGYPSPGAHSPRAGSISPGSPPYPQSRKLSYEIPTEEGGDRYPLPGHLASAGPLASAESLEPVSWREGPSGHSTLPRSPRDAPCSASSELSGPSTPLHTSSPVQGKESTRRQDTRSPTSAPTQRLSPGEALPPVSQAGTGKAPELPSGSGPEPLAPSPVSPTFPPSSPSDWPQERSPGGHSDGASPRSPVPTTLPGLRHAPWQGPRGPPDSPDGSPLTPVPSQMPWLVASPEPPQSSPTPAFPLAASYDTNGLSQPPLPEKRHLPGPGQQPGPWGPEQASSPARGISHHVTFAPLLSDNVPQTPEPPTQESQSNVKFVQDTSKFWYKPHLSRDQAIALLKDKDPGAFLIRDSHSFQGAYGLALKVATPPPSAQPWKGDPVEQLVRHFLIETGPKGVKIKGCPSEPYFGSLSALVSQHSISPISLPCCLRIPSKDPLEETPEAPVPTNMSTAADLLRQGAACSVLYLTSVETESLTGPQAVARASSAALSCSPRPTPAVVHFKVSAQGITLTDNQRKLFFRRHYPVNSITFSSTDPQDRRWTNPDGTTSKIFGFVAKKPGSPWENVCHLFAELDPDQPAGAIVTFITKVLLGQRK
In short: as §1

SH2 and PTB domains [3] = target: T3, SH2 and PTB domains (Homo sapiens, UniProt Q06124); conditions: protein PTPN11-NC, array fabrication # 39329
T3 construct: thioredoxin; made in house; host or cells: BL21(DE3)pLysS E. coli
T3 sequence (Q06124 whole entry, the tested form may be a part): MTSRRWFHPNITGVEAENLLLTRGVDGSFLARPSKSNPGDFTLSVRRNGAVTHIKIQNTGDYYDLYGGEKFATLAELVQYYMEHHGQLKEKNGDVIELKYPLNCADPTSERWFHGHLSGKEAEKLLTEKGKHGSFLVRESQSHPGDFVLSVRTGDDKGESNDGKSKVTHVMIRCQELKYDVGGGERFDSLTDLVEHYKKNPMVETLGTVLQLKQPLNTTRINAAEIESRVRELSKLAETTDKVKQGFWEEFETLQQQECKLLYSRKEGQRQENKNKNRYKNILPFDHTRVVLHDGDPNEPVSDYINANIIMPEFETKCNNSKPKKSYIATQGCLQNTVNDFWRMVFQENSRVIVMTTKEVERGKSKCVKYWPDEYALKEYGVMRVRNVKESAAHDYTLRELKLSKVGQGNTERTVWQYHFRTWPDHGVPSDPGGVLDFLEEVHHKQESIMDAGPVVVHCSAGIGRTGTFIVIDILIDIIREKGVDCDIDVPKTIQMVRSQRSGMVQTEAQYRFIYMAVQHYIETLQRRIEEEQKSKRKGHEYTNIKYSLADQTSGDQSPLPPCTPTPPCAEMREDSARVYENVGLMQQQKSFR
In short: as §1

SH2 and PTB domains [4] = target: T4, SH2 and PTB domains (Homo sapiens, UniProt Q8N5H7); conditions: protein SH2D3C, array fabrication # 39329
T4 construct: thioredoxin; made in house; host or cells: BL21(DE3)pLysS E. coli
T4 sequence (Q8N5H7 whole entry, the tested form may be a part): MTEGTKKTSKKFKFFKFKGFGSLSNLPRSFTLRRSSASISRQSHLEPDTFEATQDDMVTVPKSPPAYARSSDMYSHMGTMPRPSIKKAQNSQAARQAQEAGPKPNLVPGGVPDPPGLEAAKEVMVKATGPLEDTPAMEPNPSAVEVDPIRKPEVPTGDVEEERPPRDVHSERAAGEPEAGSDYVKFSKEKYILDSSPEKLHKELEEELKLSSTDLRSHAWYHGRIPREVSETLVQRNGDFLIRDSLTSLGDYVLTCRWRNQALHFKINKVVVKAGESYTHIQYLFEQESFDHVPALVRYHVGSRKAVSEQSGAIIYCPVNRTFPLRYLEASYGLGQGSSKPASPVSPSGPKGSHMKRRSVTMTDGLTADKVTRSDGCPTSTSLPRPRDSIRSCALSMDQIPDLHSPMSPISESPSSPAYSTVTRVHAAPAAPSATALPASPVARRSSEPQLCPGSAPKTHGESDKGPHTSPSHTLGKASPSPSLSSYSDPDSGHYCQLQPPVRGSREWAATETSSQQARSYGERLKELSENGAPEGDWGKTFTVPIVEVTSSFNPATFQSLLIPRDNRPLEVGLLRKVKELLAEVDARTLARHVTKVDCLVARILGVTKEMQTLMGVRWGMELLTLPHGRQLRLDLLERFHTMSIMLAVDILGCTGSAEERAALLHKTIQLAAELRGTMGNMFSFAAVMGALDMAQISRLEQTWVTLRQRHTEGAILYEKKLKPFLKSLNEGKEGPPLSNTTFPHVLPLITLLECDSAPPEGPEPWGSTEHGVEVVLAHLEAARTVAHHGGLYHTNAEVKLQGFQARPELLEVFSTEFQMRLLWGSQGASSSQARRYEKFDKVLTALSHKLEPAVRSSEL
In short: as §1

SH2 and PTB domains [5] = target: T5, SH2 and PTB domains (Homo sapiens, UniProt O75815); conditions: protein BCAR3; PM assay replicate # 39337; array fabrication # 39329
T5 construct: thioredoxin; made in house; host or cells: BL21(DE3)pLysS E. coli
In short: as §1

SH2 and PTB domains [6] = target: T6, SH2 and PTB domains (Homo sapiens, UniProt Q8IZW8); conditions: protein TNS4; PM assay replicate # 39307; array fabrication # 39286
T6 construct: thioredoxin; made in house; host or cells: BL21(DE3)pLysS E. coli
In short: as §1

SH2 and PTB domains [7] = target: T7, SH2 and PTB domains (Homo sapiens, UniProt Q13322); conditions: protein GRB10; PM assay replicate # 39307; array fabrication # 39286
T7 construct: thioredoxin; made in house; host or cells: BL21(DE3)pLysS E. coli
T7 sequence (Q13322 whole entry, the tested form may be a part): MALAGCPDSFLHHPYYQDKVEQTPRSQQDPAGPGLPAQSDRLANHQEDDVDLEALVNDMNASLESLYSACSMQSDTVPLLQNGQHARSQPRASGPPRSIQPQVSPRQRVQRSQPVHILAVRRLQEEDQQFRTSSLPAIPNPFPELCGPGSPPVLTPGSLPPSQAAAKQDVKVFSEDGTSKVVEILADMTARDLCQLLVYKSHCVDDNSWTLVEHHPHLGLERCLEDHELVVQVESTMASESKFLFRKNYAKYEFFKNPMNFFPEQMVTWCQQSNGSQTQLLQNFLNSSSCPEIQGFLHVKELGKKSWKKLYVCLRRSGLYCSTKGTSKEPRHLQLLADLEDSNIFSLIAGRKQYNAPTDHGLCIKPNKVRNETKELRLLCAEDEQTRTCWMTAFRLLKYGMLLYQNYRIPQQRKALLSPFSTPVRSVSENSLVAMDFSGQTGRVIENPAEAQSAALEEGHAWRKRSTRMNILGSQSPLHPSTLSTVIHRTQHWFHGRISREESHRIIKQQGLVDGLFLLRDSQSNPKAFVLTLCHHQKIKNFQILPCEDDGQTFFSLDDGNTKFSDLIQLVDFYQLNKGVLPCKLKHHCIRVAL
In short: as §1

SH2 and PTB domains [8] = target: T8, SH2 and PTB domains (Homo sapiens, UniProt P46108); conditions: protein CRK; PM assay replicate # 39307; array fabrication # 39286
T8 construct: thioredoxin; made in house; host or cells: BL21(DE3)pLysS E. coli
T8 sequence (P46108 whole entry, the tested form may be a part): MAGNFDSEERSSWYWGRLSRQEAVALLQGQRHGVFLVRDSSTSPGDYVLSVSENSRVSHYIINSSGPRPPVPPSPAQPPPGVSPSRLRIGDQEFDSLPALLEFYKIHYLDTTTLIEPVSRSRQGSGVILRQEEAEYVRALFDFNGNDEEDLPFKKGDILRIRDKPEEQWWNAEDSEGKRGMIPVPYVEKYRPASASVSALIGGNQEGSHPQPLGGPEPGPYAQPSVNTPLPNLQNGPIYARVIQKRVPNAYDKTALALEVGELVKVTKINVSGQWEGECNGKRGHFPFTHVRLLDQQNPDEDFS
In short: as §1

T1 sequence (P15498 whole entry, the tested form may be a part): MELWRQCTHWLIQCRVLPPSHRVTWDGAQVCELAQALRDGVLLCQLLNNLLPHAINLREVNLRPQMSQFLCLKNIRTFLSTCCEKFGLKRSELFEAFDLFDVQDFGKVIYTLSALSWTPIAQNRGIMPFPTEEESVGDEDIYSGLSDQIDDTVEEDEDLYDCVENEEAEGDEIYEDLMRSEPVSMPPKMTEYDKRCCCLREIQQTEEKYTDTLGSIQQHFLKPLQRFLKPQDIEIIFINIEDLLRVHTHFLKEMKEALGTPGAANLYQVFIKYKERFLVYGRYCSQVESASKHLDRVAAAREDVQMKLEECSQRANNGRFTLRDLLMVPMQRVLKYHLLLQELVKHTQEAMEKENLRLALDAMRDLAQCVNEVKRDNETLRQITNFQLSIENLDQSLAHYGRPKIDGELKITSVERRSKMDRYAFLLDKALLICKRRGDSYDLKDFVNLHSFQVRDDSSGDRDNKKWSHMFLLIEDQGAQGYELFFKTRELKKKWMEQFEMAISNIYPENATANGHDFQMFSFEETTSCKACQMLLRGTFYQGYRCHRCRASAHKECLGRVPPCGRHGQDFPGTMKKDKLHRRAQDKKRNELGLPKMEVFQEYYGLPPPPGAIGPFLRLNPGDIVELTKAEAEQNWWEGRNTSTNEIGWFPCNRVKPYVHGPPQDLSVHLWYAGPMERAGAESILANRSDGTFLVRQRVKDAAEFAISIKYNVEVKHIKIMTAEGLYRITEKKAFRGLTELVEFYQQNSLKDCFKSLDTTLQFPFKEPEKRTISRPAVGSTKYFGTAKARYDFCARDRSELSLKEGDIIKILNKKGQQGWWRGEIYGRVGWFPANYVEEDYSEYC

SMILES	Kd (SH2 and PTB domains [1]; PM assay replicate # 39336)	Kd (SH2 and PTB domains [1]; PM assay replicate # 39337)	Kd (SH2 and PTB domains [2]; PM assay replicate # 39336)	Kd (SH2 and PTB domains [2]; PM assay replicate # 39337)	Kd (SH2 and PTB domains [3]; PM assay replicate # 39336)	Kd (SH2 and PTB domains [3]; PM assay replicate # 39337)	Kd (SH2 and PTB domains [4]; PM assay replicate # 39336)	Kd (SH2 and PTB domains [4]; PM assay replicate # 39337)	Kd (SH2 and PTB domains [5])	Kd (SH2 and PTB domains [6])	Kd (SH2 and PTB domains [7])	Kd (SH2 and PTB domains [8])
CC(C)C[C@H](NC(=O)[C@@H]1CCCN1C(=O)[C@H](C)NC(=O)[C@@H](NC(=O)[C@H](Cc1ccc(OP(=O)(O)O)cc1)NC(=O)CNC(=O)[C@H](CC(=O)O)NC(=O)[C@@H](NC(=O)[C@@H](N)CCC(=O)O)[C@@H](C)O)C(C)C)C(=O)N[C@H](C(=O)N[C@@H](CS)C(=O)N[C@@H](CO)C(=O)N[C@@H](CC(=O)O)C(=O)O)[C@@H](C)O [ErbB2 pY1127]	190 nM	90 nM	32590 nM	3940 nM	1530 nM	1150 nM	1520 nM	5510 nM	730 nM			
CC[C@H](C)[C@H](NC(=O)[C@H](CC(N)=O)NC(=O)[C@H](CC(N)=O)NC(=O)[C@H](CCCCN)NC(=O)[C@H](CC(C)C)NC(=O)[C@H](Cc1ccc(OP(=O)(O)O)cc1)NC(=O)[C@H](CCC(=O)O)NC(=O)[C@H](C)NC(=O)[C@H](CCCCN)NC(=O)CNC(=O)[C@H](CC(C)C)NC(=O)[C@@H](NC(=O)[C@H](CC(N)=O)NC(=O)[C@H](C)NC(=O)[C@@H](N)Cc1ccccc1)[C@@H](C)O)C(=O)N[C@@H](CC(C)C)C(=O)N[C@@H](CO)C(=O)N[C@@H](CC(=O)O)C(=O)O [ErbB4 pY1221 (18-mer)] (HELM PEPTIDE1{F.A.N.T.L.G.K.A.E.[O=C([C@H](Cc1ccc(OP(=O)(O)O)cc1)N[*:1])[*:2]].L.K.N.N.I.L.S.D}$$$$V2.0)										320 nM	230 nM	64540 nM
